Data from ChEMBL document CHEMBL1124763, “Nucleoside conjugates. 11. Synthesis and antitumor activity of 1-beta-D-arabinofuranosylcytosine and cytidine conjugates of thioether lipids” (1990).

Assays:
Type in all cases: functional
Mus musculus [1] = experiment: Range of survival days for antitumor activity against Ip implanted L1210 / ara-C lymphoid leukemia in mice at a dose of 60 mg/kg per day; conditions: route intraperitoneal
Mus musculus [2] = experiment: Range of survival days for antitumor activity against Ip implanted L1210 / ara-C lymphoid leukemia in mice at a dose of 167 mg/kg per day; conditions: route intraperitoneal
Mus musculus [3] = experiment: Increase of life span was determined against Ip implanted L1210 / ara-C lymphoid leukemia in mice at a dose of 60 mg/kg per day; conditions: route intraperitoneal
Mus musculus [4] = experiment: Range of survival days for antitumor activity against Ip implanted L1210 / 0 lymphoid leukemia in mice at a dose of 400 mg/kg per day after treatment 1;range is 16->45; conditions: route intraperitoneal
Mus musculus [5] = experiment: Increase of life span was determined against Ip implanted L1210 / 0 lymphoid leukemia in mice at a dose of 400 mg/kg per day after treatment 5; conditions: L1210/0, ip, route intraperitoneal
Mus musculus [6] = experiment: Survival time treated / survival time (T/C) for antitumor activity against Ip implanted L1210 / 0 lymphoid leukemia in mice at a dose of 400 mg/kg per day after treatment 5;16.5/8; conditions: route intraperitoneal
Mus musculus [7] = experiment: Survival time treated/survival time tested (T/C) for antitumor activity against Ip implanted L1210 / ara-C lymphoid leukemia in mice at a dose of 60 mg/kg per day; conditions: route intraperitoneal
Mus musculus [8] = experiment: Survival time treated / survival time (T/C) for antitumor activity against Ip implanted L1210 / 0 lymphoid leukemia in mice at a dose of 60 mg/kg per day after treatment 1-5;26.5/8; conditions: route intraperitoneal
Mus musculus [9] = experiment: Range of survival days for antitumor activity against Ip implanted L1210 / 0 lymphoid leukemia in mice at a dose of 300 mg/kg per day after treatment 1;range is 18-30; conditions: route intraperitoneal
Mus musculus [10] = experiment: Survival time treated / survival time (T/C) for antitumor activity against Ip implanted L1210 / 0 lymphoid leukemia in mice at a dose of 100 mg/kg per day after treatment 1-5;36.5/8; conditions: route intraperitoneal
Mus musculus [11] = experiment: Increase of life span was determined against Ip implanted L1210 / 0 lymphoid leukemia in mice at a dose of 60 mg/kg per day after treatment 1-5; conditions: L1210/0, ip, route intraperitoneal
Mus musculus [12] = experiment: Increase of life span was determined against Ip implanted L1210 / ara-C lymphoid leukemia in mice at a dose of 300 mg/kg per day; conditions: route intraperitoneal
Mus musculus [13] = experiment: Increase of life span was determined against Ip implanted L1210 / 0 lymphoid leukemia in mice at a dose of 300 mg/kg per day after treatment 5; conditions: L1210/0, ip, route intraperitoneal
Mus musculus [14] = experiment: Survival time treated / survival time (T/C) for antitumor activity against Ip implanted L1210 / 0 lymphoid leukemia in mice at a dose of 300 mg/kg per day after treatment 5;17/8; conditions: route intraperitoneal
Mus musculus [15] = experiment: Increase of life span was determined against Ip implanted L1210 / 0 lymphoid leukemia in mice at a dose of 400 mg/kg per day after treatment 1; conditions: L1210/0, ip, route intraperitoneal
Mus musculus [16] = experiment: Survival time treated/survival time tested (T/C) for antitumor activity against Ip implanted L1210 / ara-C lymphoid leukemia in mice at a dose of 167 mg/kg per day; conditions: route intraperitoneal
Mus musculus [17] = experiment: Increase of life span was determined against Ip implanted L1210 / 0 lymphoid leukemia in mice at a dose of 100 mg/kg per day after treatment 1-5; conditions: L1210/0, ip, route intraperitoneal
Mus musculus [18] = experiment: Range of survival days for antitumor activity against Ip implanted L1210 / 0 lymphoid leukemia in mice at a dose of 100 mg/kg per day after treatment 1-5;range is 14->45; conditions: route intraperitoneal
Mus musculus [19] = experiment: Range of survival days for antitumor activity against Ip implanted L1210 / ara-C lymphoid leukemia in mice at a dose of 300 mg/kg per day; conditions: route intraperitoneal
Mus musculus [20] = experiment: Survival time treated/survival time tested (T/C) for antitumor activity against Ip implanted L1210 / ara-C lymphoid leukemia in mice at a dose of 300 mg/kg per day; conditions: route intraperitoneal
Mus musculus [21] = experiment: Increase of life span was determined against Ip implanted L1210 / ara-C lymphoid leukemia in mice at a dose of 167 mg/kg per day; conditions: route intraperitoneal
Mus musculus [22] = experiment: Survival time treated / survival time (T/C) for antitumor activity against Ip implanted L1210 / 0 lymphoid leukemia in mice at a dose of 400 mg/kg per day after treatment 1;27.5/7; conditions: route intraperitoneal
Mus musculus [23] = experiment: Survival time treated / survival time (T/C) for antitumor activity against Ip implanted L1210 / 0 lymphoid leukemia in mice at a dose of 300 mg/kg per day after treatment 1;25/7; conditions: route intraperitoneal
Mus musculus [24] = experiment: Range of survival days for antitumor activity against Ip implanted L1210 / 0 lymphoid leukemia in mice at a dose of 400 mg/kg per day after treatment 5;[…]; conditions: route intraperitoneal
Mus musculus [25] = experiment: Range of survival days for antitumor activity against Ip implanted L1210 / 0 lymphoid leukemia in mice at a dose of 300 mg/kg per day after treatment 5;range is 15-21; conditions: route intraperitoneal
Mus musculus [26] = experiment: Range of survival days for antitumor activity against Ip implanted L1210 / 0 lymphoid leukemia in mice at a dose of 60 mg/kg per day after treatment 1-5;range is 16-37; conditions: route intraperitoneal
Mus musculus [27] = experiment: Increase of life span was determined against Ip implanted L1210 / 0 lymphoid leukemia in mice at a dose of 300 mg/kg per day after treatment 1; conditions: L1210/0, ip, route intraperitoneal

SMILES: CCCCCCCCCCCCCCCCSCC(COP(=O)(O)OP(=O)(O)OC[C@H]1OC(n2ccc(N)nc2=O)[C@@H](O)[C@@H]1O)OC(=O)CCCCCCCCCCCCCCC (mixture of isomers)
- Range (Mus musculus [1]): >29
- Range (Mus musculus [2]): >7
- ILS at 60 mg/kg/day (Mus musculus [3]): > 356%
- Range of survival days (Mus musculus [4]): >16
- ILS at 400 mg/kg/day (Mus musculus [5]): 106%
- T/C (Mus musculus [6]): 16.5
- T/C (Mus musculus [7]): >41
- T/C (Mus musculus [8]): 26.5
- Range of survival days (Mus musculus [9]): 18
- T/C (Mus musculus [10]): 36.5
- ILS at 60 mg/kg/day (Mus musculus [11]): 231%
- ILS at 300 mg/kg/day (Mus musculus [12]): > 400%
- ILS at 300 mg/kg/day (Mus musculus [13]): 113%
- T/C (Mus musculus [14]): 17
- ILS at 400 mg/kg/day (Mus musculus [15]): 293%
- T/C (Mus musculus [16]): 41
- ILS at 100 mg/kg/day (Mus musculus [17]): 356%
- Range of survival days (Mus musculus [18]): >14
- Range (Mus musculus [19]): >45
- T/C (Mus musculus [20]): >45
- ILS at 167 mg/kg/day (Mus musculus [21]): 310%
- T/C (Mus musculus [22]): 27.5
- T/C (Mus musculus [23]): 25
- Range of survival days (Mus musculus [24]): 15
- Range of survival days (Mus musculus [25]): 15
- Range of survival days (Mus musculus [26]): 16
- ILS at 300 mg/kg/day (Mus musculus [27]): 257%
